{"source": "patent US20220125711A1", "about": "“CANNABINOID-CONTAINING ORAL THIN FILM FORMULATIONS” (JDEM Properties, LLC, priority 2020, published 2022)", "origin": "cited, not measured here", "tested_on": "Drosophila", "conditions": "dietary theanine, dose-dependent (Ki and Lim)"}
{"compound": "CCNC(=O)CC[C@H](N)C(=O)O", "note": "[L-theanine]", "values": [{"measurement": "daily amount of sleep", "result": "markedly increased"}, {"measurement": "latency to sleep onset", "result": "decreased"}]}
